For 24 compounds, IC50 results are on record in patent publication US9555022B2, “Substituted triazolopyridines” (Bayer Intellectual Property GmbH, priority 2010, dated 2017).

pIC50: −log10 of the molar value.

Sequence of human full length recombinant Mps-1 kinase (P33981 whole entry): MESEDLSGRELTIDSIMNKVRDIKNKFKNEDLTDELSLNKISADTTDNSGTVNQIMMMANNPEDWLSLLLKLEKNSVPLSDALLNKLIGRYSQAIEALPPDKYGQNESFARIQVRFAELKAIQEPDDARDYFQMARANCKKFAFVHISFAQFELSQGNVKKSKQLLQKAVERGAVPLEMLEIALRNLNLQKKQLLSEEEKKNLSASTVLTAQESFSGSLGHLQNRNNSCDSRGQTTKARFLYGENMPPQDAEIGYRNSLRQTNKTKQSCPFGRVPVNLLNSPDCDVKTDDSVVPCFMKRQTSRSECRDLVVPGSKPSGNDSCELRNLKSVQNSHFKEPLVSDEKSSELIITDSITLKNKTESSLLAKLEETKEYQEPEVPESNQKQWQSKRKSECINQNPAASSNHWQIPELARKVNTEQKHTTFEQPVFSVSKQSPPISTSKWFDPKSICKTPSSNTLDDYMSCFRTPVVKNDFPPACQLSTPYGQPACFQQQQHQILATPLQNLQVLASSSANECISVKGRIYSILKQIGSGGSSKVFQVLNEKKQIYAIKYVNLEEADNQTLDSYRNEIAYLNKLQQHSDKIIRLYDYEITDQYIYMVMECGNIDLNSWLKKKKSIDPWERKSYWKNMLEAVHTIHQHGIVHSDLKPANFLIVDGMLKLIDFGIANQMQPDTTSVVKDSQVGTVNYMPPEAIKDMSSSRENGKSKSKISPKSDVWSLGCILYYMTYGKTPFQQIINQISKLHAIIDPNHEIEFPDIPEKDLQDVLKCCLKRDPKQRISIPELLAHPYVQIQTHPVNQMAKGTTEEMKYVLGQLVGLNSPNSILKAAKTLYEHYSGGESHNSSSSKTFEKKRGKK

The test deals with human full length recombinant Mps-1 kinase (Homo sapiens (Human), UniProt P33981). Kind of test: Mps-1 Kinase Assay (TR-FRET). The test is classed as biochemical. The following applies: 10 μM ATP, 1 μM biotinylated peptide substrate, 60 min at 22° C., read-out: Mps-1 Inhibition, IC50 in M. The procedure, abridged:
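Next, Eu-labelled anti-phospho(Ser/Thr) antibody and SA-XLent bind for 1 h at 22° C. Finally, energy transfer quantifies phosphorylated product.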
One may read the pIC50 as the IC50 on a negative log10 scale, so that one unit is a factor of ten. With `COc1cc(CN2CCN(C)CC2)ccc1Nc1nc2ccc(-c3ccc(C(=O)NCc4ccc(F)cc4)cc3)cn2n1` [Example 04.24, N-(4-fluorobenzyl)-4-[2-({2-methoxy-4-[(4-methylpiperazin-1-yl)methyl]phenyl}amino)[,2]triazolo[1,5-a]pyridin-6-yl]benzamide], the pIC50 was not below 9.00.
Consider `COc1cc(CN2CCOCC2)ccc1Nc1nc2ccc(-c3ccc(C(=O)NCc4ccc(F)cc4)cc3)cn2n1` [Example 04.25, N-(4-fluorobenzyl)-4-(2-{[2-methoxy-4-(morpholin-4-ylmethyl)phenyl]amino}[,2]-triazolo[1,5-a]pyridin-6-yl)benzamide], for which the pIC50 is not below 9.00.
For `COc1cc(OC2CCN(C)CC2)ccc1Nc1nc2ccc(-c3ccc(C(=O)NCc4ccc(F)cc4)cc3)cn2n1` [Example 04.26, N-(4-fluorobenzyl)-4-[2-({2-methoxy-4-[(1-methylpiperidin-4-yl)oxy]phenyl}amino)[,2]triazolo[1,5-a]pyridin-6-yl]benzamide], the pIC50 is not below 9.00.
With `CSc1cc(OC2CCN(C)CC2)ccc1Nc1nc2ccc(-c3ccc(C(=O)NCc4ccc(F)cc4)cc3)cn2n1` [Example 04.27, N-(4-fluorobenzyl)-4-[2-({4-[(1-methylpiperidin-4-yl)oxy]-2-(methylsulfanyl)phenyl}amino)[,2]triazolo[1,5-a]pyridin-6-yl]benzamide], the negative-log IC50 (pIC50) is not below 9.00.
Then `Cc1cc(C(=O)N2CC3(COC3)C2)ccc1Nc1nc2ccc(-c3ccc(C(=O)NCc4ccc(F)cc4)cc3)cn2n1` [Example 04.28, N-(4-fluorobenzyl)-4-(2-{[2-methyl-4-(2-oxa-6-azaspiro[3.3]hept-6-ylcarbonyl)phenyl]amino}[,2]triazolo[1,5-a]pyridin-6-yl)benzamide], with not below 9.00; and `Cc1cc(C(=O)N2CCOCC2)ccc1Nc1nc2ccc(-c3ccc(C(=O)NCc4ccc(F)cc4)cc3)cn2n1` [Example 04.29, N-(4-fluorobenzyl)-4-(2-{[2-methyl-4-(morpholin-4-ylcarbonyl)phenyl]amino}[,2]-triazolo[1,5-a]pyridin-6-yl)benzamide], with not below 9.00.
Consider `O=C(NCc1ccc(F)cc1)c1ccc(-c2ccc3nc(Nc4ccc(C(=O)N5CC6(COC6)C5)cc4OC(F)(F)F)nn3c2)cc1` [Example 04.30, N-(4-fluorobenzyl)-4-(2-{[4-(2-oxa-6-azaspiro[3.3]hept-6-ylcarbonyl)-2-(trifluoromethoxy)phenyl]amino}[,2]-triazolo[1,5-a]pyridin-6-yl)benzamide], for which the pIC50 was not below 9.00.
The same measure for `O=C(NCc1ccc(F)cc1)c1ccc(-c2ccc3nc(Nc4ccc(C(=O)N5CCOCC5)cc4OC(F)(F)F)nn3c2)cc1` [Example 04.31, N-(4-fluorobenzyl)-4-(2-{[4-(morpholin-4-ylcarbonyl)-2-(trifluoromethoxy)phenyl]amino}[,2]-triazolo[1,5-a]pyridin-6-yl)benzamide]: not below 9.00; for `COc1ccc(C(=O)N2CCOCC2)cc1Nc1nc2ccc(-c3ccc(C(=O)NCc4ccc(F)cc4)cc3)cn2n1` [Example 04.32, N-(4-fluorobenzyl)-4-(2-{[2-methoxy-5-(morpholin-4-ylcarbonyl)phenyl]amino}[,2]-triazolo[1,5-a]pyridin-6-yl)benzamide]: not below 9.00; for `Cc1nc(N2CCOCC2)ccc1Nc1nc2ccc(-c3ccc(C(=O)NCc4ccc(F)cc4)cc3)cn2n1` [Example 04.33, N-(4-fluorobenzyl)-4-(2-{[2-methyl-6-(morpholin-4-yl)pyridin-3-yl]amino}[,2]triazolo[1,5-a]pyridin-6-yl)benzamide]: not below 9.00.
Turning to `Cc1nc(N2CCCC2)ccc1Nc1nc2ccc(-c3ccc(C(=O)NCc4ccc(F)cc4)cc3)cn2n1` [Example 04.34, N-(4-fluorobenzyl)-4-(2-{[2-methyl-6-(pyrrolidin-1-yl)pyridin-3-yl]amino}[,2]triazolo[1,5-a]pyridin-6-yl)benzamide], the pIC50 is not below 9.00.
Turning to `COc1cc(C(=O)N2CC(F)C2)ccc1Nc1nc2ccc(-c3ccc(C(=O)NCc4ccc(F)cc4)cc3)cn2n1` [Example 04.35, 4-[2-({4-[(3-fluoroazetidin-1-yl)carbonyl]-2-methoxyphenyl}amino)[,2]triazolo[1,5-a]pyridin-6-yl]-N-(4-fluorobenzyl)benzamide], the pIC50 was not below 9.00.
The same measure for `COc1cc(C(=O)N2CCOCC2)ccc1Nc1nc2ccc(-c3ccc(C(=O)NCc4ccc(Cl)cc4)cc3)cn2n1` [Example 05.01, N-(4-chlorobenzyl)-4-(2-{[2-methoxy-4-(morpholin-4-ylcarbonyl)phenyl]amino}[,2]-triazolo[1,5-a]pyridin-6-yl)benzamide]: not below 9.00.
Then `COc1cc(C(=O)N2CCOCC2)ccc1Nc1nc2ccc(-c3ccc(C(=O)NCc4ccc(C)cc4)cc3)cn2n1` [Example 05.02, 4-(2-{[2-methoxy-4-(morpholin-4-ylcarbonyl)phenyl]amino}[,2]-triazolo[1,5-a]pyridin-6-yl)-N-(4-methylbenzyl)benzamide], with not below 9.00; and `COc1cc(C(=O)N2CCOCC2)ccc1Nc1nc2ccc(-c3ccc(C(=O)NCc4ccc(F)cc4)c(F)c3)cn2n1` [Example 06.01, 2-fluoro-N-(4-fluorobenzyl)-4-(2-{[2-methoxy-4-(morpholin-4-ylcarbonyl)phenyl]amino}[,2]-triazolo[1,5-a]pyridin-6-yl)benzamide], with not below 9.00; and `COc1cc(CN2CCOCC2)ccc1Nc1nc2ccc(-c3ccc(C(=O)NCc4ccc(F)cc4)c(F)c3)cn2n1` [Example 06.02, 2-fluoro-N-(4-fluorobenzyl)-4-(2-{[2-methoxy-4-(morpholin-4-ylmethyl)phenyl]amino}[,2]-triazolo[1,5-a]pyridin-6-yl)benzamide], with not below 9.00.
Take `COc1cc(C(=O)N2CCOCC2)ccc1Nc1nc2ccc(-c3ccc(C(=O)NCc4ccc(F)cc4)c(C)c3)cn2n1` [Example 07.01, N-(4-fluorobenzyl)-4-(2-{[2-methoxy-4-(morpholin-4-ylcarbonyl)phenyl]amino}[,2]-triazolo[1,5-a]pyridin-6-yl)-2-methylbenzamide]: the pIC50 was not below 9.00.
Turning to `COc1cc(N2CCOC2=O)ccc1Nc1nc2ccc(-c3ccc(C(=O)NCc4ccc(F)cc4)c(C)c3)cn2n1` [Example 07.02, N-(4-fluorobenzyl)-4-(2-{[2-methoxy-4-(2-oxo-1,3-oxazolidin-3-yl)phenyl]amino}[,2]-triazolo[1,5-a]pyridin-6-yl)-2-methylbenzamide], the negative-log IC50 (pIC50) was 8.96.
In the case of `COc1cc(C(=O)N2CCOCC2)ccc1Nc1nc2ccc(-c3ccc(C(=O)NCc4ccc(F)cc4)c(Cl)c3)cn2n1` [Example 08.01, 2-chloro-N-(4-fluorobenzyl)-4-(2-{[2-methoxy-4-(morpholin-4-ylcarbonyl)phenyl]amino}[,2]-triazolo[1,5-a]pyridin-6-yl)benzamide], the pIC50 is not below 9.00.
The same measure for `COc1cc(C(=O)N2CCOCC2)ccc1Nc1nc2ccc(-c3ccc(C(=O)NCc4ccc(F)cc4)c(OC)c3)cn2n1` [Example 09.01, N-(4-fluorobenzyl)-2-methoxy-4-(2-{[2-methoxy-4-(morpholin-4-ylcarbonyl)phenyl]amino}[,2]-triazolo[1,5-a]pyridin-6-yl)benzamide]: not below 9.00; for `COc1cc(C(=O)N2CCOCC2)ccc1Nc1nc2ccc(-c3ccc(NC(=O)Cc4ccc(F)cc4)c(F)c3)cn2n1` [Example 10.01, N-[2-fluoro-4-(2-{[2-methoxy-4-(morpholin-4-ylcarbonyl)phenyl]amino}[,2]-triazolo[1,5-a]pyridin-6-yl)phenyl]-2-(4-fluorophenyl)acetamide]: not below 9.00; for `COc1cc(C(=O)N2CCOCC2)ccc1Nc1nc2ccc(-c3ccc(NC(=O)Cc4ccc(F)cc4)nc3)cn2n1` [Example 11.01, 2-(4-fluorophenyl)-N-[5-(2-{[2-methoxy-4-(morpholin-4-ylcarbonyl)phenyl]amino}[,2]triazolo[1,5-a]pyridin-6-yl)pyridin-2-yl]acetamide]: 8.79.
For the compound `CCOc1cc(C(=O)N2CCOCC2)ccc1Nc1nc2ccc(-c3ccc(NC(=O)Cc4ccc(F)cc4)nc3)cn2n1` [Example 11.02, N-[5-(2-{[2-ethoxy-4-(morpholin-4-ylcarbonyl)phenyl]amino}[,2]triazolo[1,5-a]pyridin-6-yl)pyridin-2-yl]-2-(4-fluorophenyl)acetamide], the negative-log IC50 (pIC50) was not below 9.00.
As for `COc1cc(N2CCOC2=O)ccc1Nc1nc2ccc(-c3ccc(C(=O)NCc4ccc(F)cc4F)c(C)c3)cn2n1` [Example 12.01, N-(2,4-difluorobenzyl)-4-(2-{[2-methoxy-4-(2-oxo-1,3-oxazolidin-3-yl)phenyl]amino}[,2]triazolo[1,5-a]pyridin-6-yl)-2-methylbenzamide], the pIC50 was not below 9.00.
